From paper PMC6541611, “The UbiX flavin prenyltransferase reaction mechanism resembles class I terpene cyclase chemistry” (Nature Communications, 2019) come the findings set out here.

Structures are written as SMILES. Read-outs that look alike come from different tables or passages of the source.

Experiment [1] has as its target T1, EcUbiX (Escherichia coli, UniProt P0AG03).
T1 construct: gene ubiX
T1 sequence (P0AG03 1-189): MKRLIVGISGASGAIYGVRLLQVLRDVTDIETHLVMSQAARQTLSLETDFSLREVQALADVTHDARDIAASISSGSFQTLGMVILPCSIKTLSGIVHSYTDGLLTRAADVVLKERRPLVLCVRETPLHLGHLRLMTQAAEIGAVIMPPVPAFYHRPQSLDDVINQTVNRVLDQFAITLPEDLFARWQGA
The experiment is described as follows: UV-Vis single turnover. Type of experiment: biochemical.

The target of experiment [2] is T2, AnUbiX (Aspergillus niger, UniProt A3F715).
T2 construct: gene PAD1
T2 sequence (A3F715 1-227): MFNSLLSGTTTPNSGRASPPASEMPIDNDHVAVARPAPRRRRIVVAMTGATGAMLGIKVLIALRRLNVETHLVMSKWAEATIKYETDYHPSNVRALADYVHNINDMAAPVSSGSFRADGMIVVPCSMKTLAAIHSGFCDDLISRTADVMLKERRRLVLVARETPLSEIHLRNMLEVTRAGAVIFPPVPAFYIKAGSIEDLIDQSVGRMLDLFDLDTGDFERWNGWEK
In words: crystal structure. It is filed as binding.

In experiment [3] the target is T2, AnUbiX. The experiment is described as follows: UV-Vis single turnover. It is filed as biochemical.

As for `CC(C)=CCOP(=O)(O)OP(=O)(O)O` [DMAPP], in experiment [1] (2 mM DMAPP, FMNH2, pH 8, prFMN formed), the UV-Vis single turnover entry is “is only able to catalyse DMAPP-specific prFMNH2 formation under the conditions tested”. Besides, the crystal structure entry in experiment [2] (co-purified, no exogenous DMAPP added, with oxidised FMN, pH 6.2) was “electron density directly located above the oxidised FMN that corresponds to a bound DMAPP”.
Regarding `CC(C)=CCOP(=O)(O)O` [DMAP], the UV-Vis single turnover result is “AnUbiX and EcUbiX appear to catalyse the prenyltransferase step with DMAP” in experiment [1]; “Crucially, DMAP incubation does affect the resulting FMN spectrum” in experiment [3].
`Cc1cc2nc3c(=O)[nH]c(=O)nc-3n(C[C@H](O)[C@H](O)[C@H](O)COP(=O)(O)O)c2cc1C` [FMN]: the crystal structure entry in experiment [2] is “The crystal structure of AnUbiX in complex with FMN and DMAPP”.
